# Source: US20240415123A1, “METHODS AND COMPOSITIONS FOR ICAFOLIN HERBICIDE TOLERANCE” (Monsanto Technology LLC, priority 2023, published 2024)
# How the values were obtained:
# Type in all cases: in vivo
# [1] = test system: transgenic soybean plants expressing CYP15; test: Icafolin herbicide injury rating, greenhouse spray, CYP15 soybean
# Source text: (§1) The codon-optimized polynucleotide sequences were placed into plant transformation cassettes with each CYP coding sequence operably-linked to a constitutive expression element comprising the promoter, leader, and intron sequence of Arabidopsis thaliana Ubiquitin 3 (SEQ ID NO:14) and a Medicago truncatula photosystem II terminator (SEQ ID NO:15). Four plant transformation vectors were created, each comprising one of the CYP gene expression cassettes and an aadA selectable marker expression cassette, conferring resistance to the antibiotics spectinomycin and streptomycin. Soybean cultivar AG3555 seed-derived embryo explants were transformed with the vectors by Agrobacterium-mediated transformation using known methods in the art, and transformed plantlets were selected based on growth in the presence of spectinomycin. Plantlets comprising single copy events were grown in the greenhouse to produce R1 seeds. R1 plants were subsequently selected for homozygous CYP-positive plants, either by molecular analysis of young leaf tissue or by seed chipping prior to planting. These selected plants were then screened for tolerance to icafolin herbicide.
# (§2) Herbicide tolerance screens were performed by selecting R1 plants at roughly the V2-V3 developmental stage and applying icafolin herbicide with a track sprayer under standard greenhouse conditions. Two independent transgenic events per transgene were screened. The herbicide was formulated with 1% v/v methylated seed oil (MSO) and 2.5% v/v ammonium sulfate (AMS) and sprayed with a XR nozzle at 15 gallons per […] (GPA) to mimic field conditions. The icafolin used in this Example and in the experiments described in Examples 2-4 was a mixture of the methyl ester forms of the 2R, 4R and 2S, 4S isomers. The icafolin formulation was sprayed at two rates: 5 g active ingredient (ai)/hectare (ha) and 25 g ai/ha. The herbicide treated soybean plants were returned to the greenhouse following spray application and allowed to grow under standard conditions. Plants were rated for herbicide injury at approximately 14 and 21 days after treatment (DAT). Untreated transgenic plants and control (wild-type) plants were used for phenotypic comparison. The herbicide injury rating accounts for plant malformation, stunting, chlorosis, necrosis, and plant death relative to the untreated control plants. An injury rating of approximately 90% or above indicates nearly complete plant death. An injury rating of less than 30% indicates partial tolerance, and an injury rating of less than 20% indicates good tolerance. Injury ratings were collected and analyzed, and photographs of representative plants were taken.
# [2] = test system: control (wild-type) soybean plants; test: Icafolin herbicide injury rating, greenhouse spray, control soybean; conditions: for Percent Injury 13 DAT / Percent Injury 14 DAT / Percent Injury 15 DAT / Percent injury 21 DAT: Control
# Procedure: as §2
# (§3) Herbicide tolerance screening was performed by selecting R1 plants at roughly the V2-V3 developmental stage and applying the icafolin herbicide in a track sprayer under standard greenhouse conditions. Two independent transgenic events per transgene were selected for screening. The herbicide was formulated with 1% v/v methylated seed oil (MSO) and 2.5% v/v ammonium sulfate (AMS) and sprayed with a XR nozzle at 15 gallons per […] (GPA) to mimic field conditions. The icafolin formulation was sprayed at two rates: 5 g active ingredient (ai)/hectare (ha) and 25 g ai/ha. The treated soybean plants were returned to the greenhouse following spray application and allowed to grow under standard conditions. The plants were rated for herbicide injury at approximately 14 and 21 days after treatment (DAT). Untreated transgenic plants and control (wild-type) plants were used for phenotypic comparison. The herbicide injury rating accounts for plant malformation, stunting, chlorosis, necrosis, and plant death relative to the untreated control plants. An injury rating of approximately 90% or above indicates nearly complete plant death. An injury rating of less than 30% indicates partial tolerance and an injury rating of less than 20% indicates good tolerance. Injury ratings were collected and analyzed, and photographs of representative plants were taken.
# as §3, with “13” for “14”, “An injury rating of approximately 90% or above indicates nearly complete plant death. An injury rating of less than 30% indicates partial tolerance and an injury rating of less than 20% indicates good tolerance. Injury ratings were collected and analyzed, and photographs of representative plants were taken.” left out
# [3] = test system: transgenic soybean plants expressing CYP12_var; test: Icafolin herbicide injury rating, greenhouse spray, CYP12_var soybean; conditions: for Percent Injury 15 DAT / Percent injury 21 DAT: Experiment 1
# Source text: as §1, §2
# [4] = CYP15 Event 618, 5 g ai/ha icafolin, Experiment 2
# [5] = CYP15 Event 618, 25 g ai/ha icafolin, Experiment 2
# [6] = CYP15 Event 670, 5 g ai/ha icafolin, Experiment 2
# [7] = CYP15 Event 670, 25 g ai/ha icafolin, Experiment 2
# [8] = CYP15 Event 784, 5 g ai/ha icafolin, Experiment 2
# [9] = CYP15 Event 784, 5 g ai/ha icafolin, Experiment 1
# [10] = CYP15 Event 784, 25 g ai/ha icafolin, Experiment 2
# [11] = CYP15 Event 784, 25 g ai/ha icafolin, Experiment 1
# [12] = CYP15 Event 794, 5 g ai/ha icafolin, Experiment 2
# [13] = CYP15 Event 794, 5 g ai/ha icafolin, Experiment 1
# [14] = CYP15 Event 794, 25 g ai/ha icafolin, Experiment 2
# [15] = CYP15 Event 794, 25 g ai/ha icafolin, Experiment 1
# [16] = 5 g ai/ha icafolin, Experiment 1
# [17] = 25 g ai/ha icafolin, Experiment 1
# [18] = CYP12_var Event 909, 5 g ai/ha icafolin
# [19] = CYP12_var Event 909, 25 g ai/ha icafolin
# [20] = CYP12_var Event 932, 5 g ai/ha icafolin
# [21] = CYP12_var Event 932, 25 g ai/ha icafolin
structure (smiles),measurement,setting,value
"C=C[C@]1(C(=O)N[C@H]2CO[C@@H](C(=O)OC)C2)CC(c2cc(F)cc(F)c2)=NO1 (relative stereo) [icafolin, methyl(2R*,4R*)-4-[[(5S)-3-(3,5-difluorophenyl)-5-vinyl-4H-isoxazole-5-carbonyl]amino]tetrahydrofuran-2-carboxylate]",Percent Injury 14 DAT,[1]; [4],23%
same,Percent injury 21 DAT,[1]; [4],12%
same,Percent Injury 14 DAT,[1]; [5],60%
same,Percent injury 21 DAT,[1]; [5],32%
same,Percent Injury 14 DAT,[1]; [6],10%
same,Percent injury 21 DAT,[1]; [6],15%
same,Percent Injury 14 DAT,[1]; [7],52%
same,Percent injury 21 DAT,[1]; [7],34%
same,Percent Injury 14 DAT,[1]; [8],8%
same,Percent Injury 15 DAT,[1]; [9],8%
same,Percent injury 21 DAT,[1]; [9],3%
same,Percent injury 21 DAT,[1]; [8],11%
same,Percent Injury 14 DAT,[1]; [10],78%
same,Percent Injury 15 DAT,[1]; [11],28%
same,Percent injury 21 DAT,[1]; [11],32%
same,Percent injury 21 DAT,[1]; [10],44%
same,Percent Injury 14 DAT,[1]; [12],12%
same,Percent Injury 15 DAT,[1]; [13],8%
same,Percent injury 21 DAT,[1]; [13],6%
same,Percent injury 21 DAT,[1]; [12],9%
same,Percent Injury 14 DAT,[1]; [14],78%
same,Percent Injury 15 DAT,[1]; [15],36%
same,Percent injury 21 DAT,[1]; [15],41%
same,Percent injury 21 DAT,[1]; [14],49%
same,Tolerance to icafolin,[1]; in vivo,unexpected tolerance
same,injury,[1]; in vivo,less than 30%
same,Percent Injury 13 DAT,"[2]; 5 g ai/ha icafolin, 13 DAT, Table 10 (Example 4)",42.5%
same,Percent Injury 14 DAT,"[2]; 5 g ai/ha icafolin, 14 DAT, Experiment 2",61%
same,Percent Injury 14 DAT,"[2]; 5 g ai/ha icafolin, 14 DAT, Table 8 (Example 3)",45.0%
same,Percent Injury 15 DAT,[2]; [16],42%
same,Percent injury 21 DAT,[2]; [16],50%
same,Percent injury 21 DAT,"[2]; 5 g ai/ha icafolin, Experiment 2",49%
same,Percent injury 21 DAT,"[2]; 5 g ai/ha icafolin, Table 8 (Example 3)",35.6%
same,Percent injury 21 DAT,"[2]; 5 g ai/ha icafolin, Table 10 (Example 4)",35.0%
same,Percent Injury 13 DAT,"[2]; 25 g ai/ha icafolin, 13 DAT, Table 10 (Example 4)",70.0%
same,Percent Injury 14 DAT,"[2]; 25 g ai/ha icafolin, 14 DAT, Experiment 2",90%
same,Percent Injury 14 DAT,"[2]; 25 g ai/ha icafolin, 14 DAT, Table 8 (Example 3)",78.1%
same,Percent Injury 15 DAT,[2]; [17],75%
same,Percent injury 21 DAT,[2]; [17],81%
same,Percent injury 21 DAT,"[2]; 25 g ai/ha icafolin, Experiment 2",91%
same,Percent injury 21 DAT,"[2]; 25 g ai/ha icafolin, Table 8 (Example 3)",83.1%
same,Percent injury 21 DAT,"[2]; 25 g ai/ha icafolin, Table 10 (Example 4)",79.4%
same,injury,"[2]; control, 25 g ai/ha, 13 DAT, Example 4",about 70%
same,injury,"[2]; control, 25 g ai/ha, 14 DAT, Example 3",about 78%
same,injury,"[2]; treated control (wild-type), 5 g ai/ha, Example 1",around 50%
same,Injury in words,"[2]; treated control (wild-type), 5 g ai/ha, Experiment 1",heavily injured
same,Injury in words,"[2]; treated control (wild-type), 25 g ai/ha, Experiment 1",nearly completely killed
same,injury,"[2]; treated control, 5 g ai/ha, 13 DAT, Example 4",around 42%
same,injury,"[2]; treated control, 5 g ai/ha, 14 DAT, Example 3",around 45%
same,injury,"[2]; treated controls, 25 g ai/ha, Example 1",around 90%
same,Percent Injury 15 DAT,[3]; [18],39%
same,Percent injury 21 DAT,[3]; [18],50%
same,Percent Injury 15 DAT,[3]; [19],57%
same,Percent injury 21 DAT,[3]; [19],77%
same,Percent Injury 15 DAT,[3]; [20],42%
same,Percent injury 21 DAT,[3]; [20],47%
same,Percent Injury 15 DAT,[3]; [21],69%
same,Percent injury 21 DAT,[3]; [21],80%
same,Tolerance to icafolin,[3]; in vivo,did not show any noticeable tolerance
